Laboratory results published in the NIST ThermoML archive (doi:10.1016/j.tca.2007.03.018).
“And” between values parts separate entries of the source, which are not always exact repeats. Equal entries are not always repeated.

Experiment: molar heat capacity at saturation pressure
Conditions: Crystal 3, Small (less than 1 g) adiabatic calorimetry

C1C2CC3CC1CC(C14CC5CC(CC(C5)C1)C4)(C2)C3 [1,1'-biadamantane]
Conditions	molar heat capacity
5.12 K	0.3991 J/K/mol
5.48 K	0.4822 J/K/mol
5.83 K	0.5877 J/K/mol
6.16 K	0.685 J/K/mol
6.52 K	0.8082 J/K/mol
6.89 K	0.9715 J/K/mol
7.26 K	1.141 J/K/mol
7.65 K	1.358 J/K/mol
8.06 K	1.589 J/K/mol
8.49 K	1.895 J/K/mol
8.96 K	2.209 J/K/mol
9.44 K	2.572 J/K/mol
9.95 K	2.983 J/K/mol
10.48 K	3.464 J/K/mol
11.04 K	3.988 J/K/mol
11.61 K	4.561 J/K/mol
12.2 K	5.242 J/K/mol
12.83 K	5.943 J/K/mol
13.49 K	6.781 J/K/mol
14.18 K	7.626 J/K/mol
14.87 K	8.538 J/K/mol
15.63 K	9.556 J/K/mol
16.43 K	10.67 J/K/mol
17.24 K	11.86 J/K/mol
18.08 K	13.09 J/K/mol
18.95 K	14.44 J/K/mol
19.88 K	15.84 J/K/mol
20.83 K	17.31 J/K/mol
21.82 K	18.74 J/K/mol
22.89 K	20.35 J/K/mol
22.95 K	20.46 J/K/mol
24.01 K	21.99 J/K/mol
24.06 K	22.16 J/K/mol
25.22 K	23.79 J/K/mol
26.48 K	25.74 J/K/mol
27.75 K	27.57 J/K/mol
29.1 K	29.32 J/K/mol
30.54 K	31.4 J/K/mol
31.99 K	33.13 J/K/mol
33.46 K	34.98 J/K/mol
34.99 K	36.71 J/K/mol
36.59 K	38.54 J/K/mol
38.25 K	40.44 J/K/mol
40.03 K	42.38 J/K/mol
41.9 K	44.38 J/K/mol
43.85 K	46.11 J/K/mol
45.82 K	48.13 J/K/mol
47.8 K	49.99 J/K/mol
49.9 K	51.98 J/K/mol
52.16 K	54.02 J/K/mol
56.79 K	58.28 J/K/mol
59.06 K	60 J/K/mol
61.48 K	62.21 J/K/mol
64.1 K	64.5 J/K/mol
66.87 K	66.86 J/K/mol
69.6 K	69.08 J/K/mol
72.27 K	71.72 J/K/mol
74.94 K	73.93 J/K/mol
77.75 K	76.41 J/K/mol
78.69 K	77.62 J/K/mol
80.6 K	79.18 J/K/mol
81.1 K	79.65 J/K/mol
83.35 K	81.61 J/K/mol
83.41 K	81.57 J/K/mol
85.61 K	83.56 J/K/mol
86.26 K	84.36 J/K/mol
87.88 K	85.72 J/K/mol
89.1 K	86.73 J/K/mol
90.15 K	87.8 J/K/mol
91.92 K	89.55 J/K/mol
92.41 K	89.88 J/K/mol
94.69 K	91.96 J/K/mol
96.97 K	94.12 J/K/mol
99.26 K	96.28 J/K/mol
101.55 K	98.53 J/K/mol
103.84 K	100.69 J/K/mol
106.12 K	102.85 J/K/mol
108.41 K	105.09 J/K/mol
110.71 K	107.17 J/K/mol
113 K	109.58 J/K/mol
115.31 K	111.83 J/K/mol
117.61 K	113.99 J/K/mol
119.9 K	116.15 J/K/mol
122.2 K	118.56 J/K/mol
124.49 K	120.81 J/K/mol
126.77 K	123.05 J/K/mol
129.06 K	125.38 J/K/mol
130.26 K	126.5 J/K/mol
131.34 K	127.63 J/K/mol
132.68 K	129 J/K/mol
134.96 K	131.3 J/K/mol
137.24 K	133.6 J/K/mol
139.51 K	135.9 J/K/mol
141.78 K	138.2 J/K/mol
144.05 K	140.5 J/K/mol
146.32 K	142.9 J/K/mol
148.59 K	145.3 J/K/mol
150.84 K	147.7 J/K/mol
153.1 K	150.1 J/K/mol
155.35 K	152.4 J/K/mol
157.59 K	154.7 J/K/mol
159.84 K	157.1 J/K/mol
162.08 K	159.6 J/K/mol
164.32 K	161.9 J/K/mol
166.57 K	164.4 J/K/mol
168.8 K	166.9 J/K/mol
171.03 K	169.3 J/K/mol
173.25 K	171.7 J/K/mol
175.46 K	174.2 J/K/mol
177.68 K	176.7 J/K/mol
179.89 K	179.2 J/K/mol
182.09 K	181.7 J/K/mol
184.28 K	184.2 J/K/mol
186.47 K	186.7 J/K/mol
188.65 K	189.2 J/K/mol
190.83 K	191.6 J/K/mol
193 K	194.2 J/K/mol
195.17 K	196.7 J/K/mol
197.33 K	199.3 J/K/mol
199.49 K	201.8 J/K/mol
201.65 K	204.5 J/K/mol
203.8 K	207.1 J/K/mol
205.94 K	209.8 J/K/mol
208.08 K	212.4 J/K/mol
210.21 K	215 J/K/mol
212.34 K	217.7 J/K/mol
214.46 K	220.3 J/K/mol
216.58 K	222.9 J/K/mol
217.18 K	223.7 J/K/mol
218.7 K	225.6 J/K/mol
219.55 K	226.6 J/K/mol
220.81 K	228.3 J/K/mol
221.81 K	229.5 J/K/mol
222.91 K	231 J/K/mol
224.05 K	232.4 J/K/mol
225.01 K	233.7 J/K/mol
226.29 K	235.3 J/K/mol
228.52 K	238.3 J/K/mol
230.75 K	241.1 J/K/mol
232.97 K	244 J/K/mol
235.18 K	246.9 J/K/mol
237.39 K	249.9 J/K/mol
239.59 K	252.9 J/K/mol
241.79 K	255.7 J/K/mol
243.98 K	258.7 J/K/mol
246.17 K	261.7 J/K/mol
248.35 K	264.6 J/K/mol
250.52 K	267.6 J/K/mol
252.71 K	270.6 J/K/mol
254.88 K	273.6 J/K/mol
257.04 K	276.7 J/K/mol
259.19 K	279.8 J/K/mol
261.34 K	282.9 J/K/mol
263.48 K	286 J/K/mol
265.62 K	289.2 J/K/mol
267.75 K	292 J/K/mol
269.87 K	295.1 J/K/mol
271.98 K	298.2 J/K/mol
274.09 K	301.2 J/K/mol
275.74 K	303.3 J/K/mol
276.2 K	304.1 J/K/mol
277.54 K	306 J/K/mol
278.29 K	307.1 J/K/mol
279.26 K	308.4 J/K/mol
280.39 K	310.1 J/K/mol
280.98 K	311 J/K/mol
282.47 K	313.1 J/K/mol
282.68 K	313.6 J/K/mol
284.38 K	316 J/K/mol
284.56 K	316 J/K/mol
286.08 K	318.6 J/K/mol
286.65 K	319.1 J/K/mol
287.78 K	321.1 J/K/mol
288.72 K	322.2 J/K/mol
289.47 K	323.6 J/K/mol
290.79 K	325 J/K/mol
291.16 K	325.9 J/K/mol
292.84 K	328 J/K/mol and 328.3 J/K/mol
294.52 K	330.7 J/K/mol
294.89 K	331.1 J/K/mol
296.19 K	333.2 J/K/mol
296.94 K	334 J/K/mol
297.87 K	335.4 J/K/mol
298.98 K	336.9 J/K/mol
299.54 K	338 J/K/mol
301.01 K	339.9 J/K/mol
301.2 K	340.6 J/K/mol
302.86 K	342.9 J/K/mol
303.04 K	342.7 J/K/mol
304.51 K	345.2 J/K/mol
305.05 K	345.7 J/K/mol
